Results taken from paper PMC12030059, “Mechanistic Advances in the Therapeutic Application of Bixin for Lung Inflammation In Vitro and In Vivo” (Pharmaceuticals, 2025).

Experiments:
Type in all cases: cell-based
[1] = tested on: RAW 264.7 macrophages; experiment: MTT cell viability assay; settings: 12.5 to 200 μM, 3 h of exposure
Experimental: RAW 264.7 cells were plated (5 × 10^4 cells/well) in a 96-well plate with DMEM and 10% FBS. When cells reached 90% confluence, the 10% (v/v) FBS DMEM was discarded and replaced with the stimuli. […] The metabolism of MTT by the cells was monitored by the formation of insoluble salts, which were then dissolved in isopropyl alcohol. Absorbance was read at 570 nm using a Varioskan LUX (ThermoFisher Scientific, Waltham, MA, USA). […] Cell viability was normalized in all groups by the control (1% (v/v) FBS DMEM), with 10% (v/v) FBS in DMEM used as the positive growth control.

[2] = tested on: RAW 264.7 cells; experiment: ROS scavenger activity assay (NBT), LPS-induced; settings: for ROS production induced by LPS: LPS 10 μg/mL, 12.5–200 μM, effect starting from 100 µM
Experimental: ROS levels were determined using the NBT method. RAW 264.7 cells were incubated for 1 h with 10 μg/mL LPS and different concentrations of bixin or potassium bixinate (0–200 μM) to evaluate their ability to intercept superoxide anions induced by LPS. After incubation, a 10% (w/v) NBT solution was added to each well and incubated for 1 h at 37 °C. Cellular membranes were permeabilized with 2 M KOH, and the resulting formazan was solubilized in DMSO. Optical density (OD) was measured at 630 nm using a Varioskan LUX spectrophotometer (ThermoFisher Scientific, Waltham, MA, USA).

[3] = tested on: F-actin in RAW 264.7 cells; experiment: F-actin polymerization assay; settings: 200 μM, alone and in the presence of 5% CSE
Experimental: RAW 264.7 cells were seeded in a 24-well plate (2.5 × 10^5 cells/well) and stimulated as previously described. After reaching 70% confluence, cells were blocked with 5% (w/v) BSA for 1 h and washed three times in PBS-Tween 20 (0.1% (v/v)). The supernatants were replaced with ActinRed (ThermoFisher Scientific, Waltham, MA, USA) for 30 min, followed by washing and incubation with DAPI for 5 min. After the final wash, DMEM FluoroBrite was added, and fluorescence was analyzed using the EVOS inverted microscope (ThermoFisher Scientific, Waltham, MA, USA).

[4] = tested on: p-p65 NF-κB in RAW 264.7 cells; experiment: Immunocytochemistry for p-p65 nuclear translocation; settings: for nuclear p-p65 (green fluorescence colocalized with DAPI), compound alone: 200 μM, no stimulus; for p-p65 NF-κB nuclear translocation in cells stimulated with CSE: 5% CSE then compound 200 μM
Experimental: RAW 264.7 cells were seeded in a 24-well plate (2.5 × 10^5 cells/well) and stimulated as previously described. After reaching 70% confluence, cells were blocked with 5% (w/v) BSA for 1 h, then washed three times in PBS-Tween 20 (0.1% (v/v)). The supernatants were replaced with a solution containing the primary antibody against p-p65 (#3033-rabbit-1:500) (Cell Signaling Technology, Danvers, MA, USA) diluted in PBS-T with 1% (w/v) BSA and incubated overnight. After incubation, cells were incubated for 1 h with a secondary antibody conjugated to Alexa Fluor-488 (1:1000; ThermoFisher Scientific, Waltham, MA, USA). Cells were then washed three times with PBS-T and incubated with DAPI for 5 min. After the final wash, DMEM FluoroBrite was added, and fluorescence was analyzed using the EVOS inverted microscope (ThermoFisher Scientific, Waltham, MA, USA). Images were captured at 20× magnification from at least 10 fields for each experimental condition, and fluorescence intensity was quantified.

[5] = tested on: HDAC6; experiment: Western blotting, HDAC6 expression; settings: RAW 264.7, increase by CSE 5%
Experimental: The RAW 264.7 macrophage cell lines were cultured in DMEM supplemented with 10% (v/v) FBS, pH 7.2, at 37 °C in a humidified atmosphere with 5% CO2. RAW 264.7 cells were plated in a 24-well plate (3.5 × 10^5 cells/well) in DMEM with 1% (v/v) FBS and left overnight to adhere. […] After incubation, the medium was removed, and a 100 μM solution of bixin or potassium bixinate (diluted in DMEM; bixin was first prepared as a stock solution in DMSO) was added for an additional 1 h.
Cells were lysed in RIPA buffer containing […]™ Protease Inhibitor and 1 mM sodium orthovanadate. Samples were then analyzed using the bicinchoninic acid (BCA) method (BCA Protein Assay Kit). […] For protein quantification, 10 μL of the sample was mixed with 100 μL of the working solution, and the same procedure was performed for each point on the standard curve in a 96-well plate. […] Absorbance was read at 565 nm using a Varioskan LUX spectrophotometer (ThermoFisher Scientific, Waltham, MA, USA).
(§1) Cell lysates (10–20 μg of protein) were separated by SDS-PAGE (sodium dodecyl sulfate polyacrylamide gel for electrophoresis) (8 or 12% polyacrylamide) and transferred (25 V, 1.0 A, 30 min—Trans-Blot Turbo Transfer System, Bio-Rad—São Paulo, Brazil) to a PVDF membrane. […] Densitometry was quantified using ImageJ software v. […] Results are expressed as densitometric values for each protein normalized to β-actin.

[6] = tested on: ICAM-1; experiment: Western blotting, ICAM-1 expression; settings: RAW 264.7, 200 μM following CSE 5% exposure
Experimental: (§2) The RAW 264.7 macrophage cell lines were cultured in DMEM supplemented with 10% (v/v) FBS, pH 7.2, at 37 °C in a humidified atmosphere with 5% CO2. RAW 264.7 cells were plated in a 24-well plate (3.5 × 10^5 cells/well) in DMEM with 1% (v/v) FBS and left overnight to adhere. […]
(§3) Cells were lysed in RIPA buffer containing […]™ Protease Inhibitor and 1 mM sodium orthovanadate. Samples were then analyzed using the bicinchoninic acid (BCA) method (BCA Protein Assay Kit). Standard curves with known albumin concentrations (0–2 mg/mL) were used. The working solution was prepared according to the manufacturer’s instructions. For protein quantification, 10 μL of the sample was mixed with 100 μL of the working solution, and the same procedure was performed for each point on the standard curve in a 96-well plate. […] Absorbance was read at 565 nm using a Varioskan LUX spectrophotometer (ThermoFisher Scientific, Waltham, MA, USA).
as §1

[7] = tested on: NOS2; experiment: Western blotting, NOS2 expression; settings: RAW 264.7, 200 μM, CSE 5%
Experimental: as §2, §3, §1

Compound | cell viability [1] | ROS production induced by LPS [2] | F-actin labeling (MFI) [3] | nuclear p-p65 (green fluorescence colocalized with DAPI), compound alone [4] | p-p65 NF-κB nuclear translocation in cells stimulated with CSE [4] | HDAC6 expression (HDAC6/β-actin) [5] | ICAM-1 expression (ICAM-1/β-actin) [6] | NOS2 expression (NOS2/β-actin) [7] | potency to intercept ROS formation relative to bixin ([2]; in vitro, KBx versus bixin)
COC(=O)/C=C/C(C)=C\C=C\C(C)=C\C=C\C=C(C)\C=C\C=C(C)\C=C\C(=O)O [HBx, (2E,4E,6E,8E,10E,12E,14E,16Z,18E)-20-methoxy-4,8,13,17-tetramethyl-20-oxoicosa-2,4,6,8,10,12,14,16,18-nonaenoic acid] | did not affect cell viability | dose-dependent reduction in ROS production | maintained F-actin at control levels | do not display a significant increase in green fluorescence intensity | prevent p-p65 NF-κB nuclear translocation | effective in reducing it | reduced ICAM-1 expression | reduced it | –
potassium bixinate [KBx] | did not affect cell viability | dose-dependent reduction in ROS production | maintained F-actin at control levels | do not display a significant increase in green fluorescence intensity | prevent p-p65 NF-κB nuclear translocation | effective in reducing it | reduced ICAM-1 expression | reduced it | three-fold more potency
